pIC50, pKi: −log10 of the molar value.
Columns and labels:
Cathepsin D = Cathepsin D (Homo sapiens, UniProt P07339); test: Inhibitory activity against human cathepsin D was determined
[1] = biological target: Human immunodeficiency virus type 1 protease (Human immunodeficiency virus 1, UniProt Q72874); test: Inhibitory activity against HIV protease was determined
[2] = biological target: Human immunodeficiency virus type 1 protease (Human immunodeficiency virus 1) (UniProt Q72874); test: Kinetic parameter (kina) value was determined for the compound

Cathepsin D, sequence (P07339 65-162 limits assumed): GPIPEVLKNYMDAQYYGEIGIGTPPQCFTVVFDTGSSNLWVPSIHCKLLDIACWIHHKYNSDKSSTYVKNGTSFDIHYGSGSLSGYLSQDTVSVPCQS
Cathepsin D, sequence (P07339 169-412 limits assumed): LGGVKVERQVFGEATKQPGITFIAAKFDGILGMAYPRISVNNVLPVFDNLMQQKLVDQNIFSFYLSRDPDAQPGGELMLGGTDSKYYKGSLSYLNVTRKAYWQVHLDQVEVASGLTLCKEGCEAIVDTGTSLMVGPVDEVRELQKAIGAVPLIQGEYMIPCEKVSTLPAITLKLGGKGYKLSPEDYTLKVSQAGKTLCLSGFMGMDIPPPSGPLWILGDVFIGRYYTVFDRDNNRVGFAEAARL

Structure (SMILES) | pIC50 (Cathepsin D) | pKi [1] | Kina [2] [min⁻¹]
CC(C)C(NC(=O)C[C@@H]1O[C@@H]1[C@H](Cc1ccccc1)NC(=O)C(CC(N)=O)NC(=O)c1ccc2ccccc2n1)C(C)C (stereo partly specified) | 4.90 | 9.00 | 0.2
CC(C)C(NC(=O)C[C@H]1O[C@H]1[C@H](Cc1ccccc1)NC(=O)OCc1ccccc1)C(=O)O (stereo partly specified) | – | 5.88 | 1.48
CCC(C)C(NC(=O)C[C@H]1O[C@H]1[C@H](Cc1ccccc1)NC(=O)C(CC(N)=O)NC(=O)c1ccc2ccccc2n1)C(=O)O (mixture of isomers) | – | 7.74 | 0.22
CC(C)C(NC(=O)C[C@H]1O[C@@H]1[C@H](Cc1ccccc1)NC(=O)OCc1ccccc1)C(=O)O (stereo partly specified) | – | 3.70 | 0.2
CC(C)C(NC(=O)[C@@H]1O[C@@H]1[C@H](Cc1ccccc1)NC(=O)OCc1ccccc1)C(=O)O (stereo partly specified) | – | < 2.00 | 0.02
